The values that follow come from US20250026769A1, “PAPD5 INHIBITORS AND METHODS OF USE THEREOF” (The Children's Medical Center Corporation, priority 2021, published 2025).

SMILES strings stand for the structures.

T1 sequence (Q8NDF8 68-698 isoform Q8NDF8-5 limits assumed): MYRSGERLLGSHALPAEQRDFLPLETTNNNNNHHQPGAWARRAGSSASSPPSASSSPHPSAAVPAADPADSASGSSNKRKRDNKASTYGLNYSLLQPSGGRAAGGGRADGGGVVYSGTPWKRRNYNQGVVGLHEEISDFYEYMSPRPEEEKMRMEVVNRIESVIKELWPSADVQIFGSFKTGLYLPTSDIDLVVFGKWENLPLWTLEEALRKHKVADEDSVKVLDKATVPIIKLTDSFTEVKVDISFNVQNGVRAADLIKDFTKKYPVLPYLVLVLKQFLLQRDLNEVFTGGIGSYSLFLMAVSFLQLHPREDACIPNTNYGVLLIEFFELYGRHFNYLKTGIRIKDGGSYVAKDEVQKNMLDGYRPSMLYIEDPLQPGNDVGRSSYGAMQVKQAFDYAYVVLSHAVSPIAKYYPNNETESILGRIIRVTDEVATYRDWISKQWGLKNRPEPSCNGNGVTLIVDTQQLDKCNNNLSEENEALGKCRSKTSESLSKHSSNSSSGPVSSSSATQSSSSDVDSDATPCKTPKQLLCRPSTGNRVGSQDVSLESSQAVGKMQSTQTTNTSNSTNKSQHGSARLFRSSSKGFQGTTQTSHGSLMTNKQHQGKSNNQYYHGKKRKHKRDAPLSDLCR

One test concerns the target T1, rPAPD5 (Homo sapiens, UniProt Q8NDF8).
T1 construct: made in house
Briefly: differential scanning fluorimetry (DSF) binding and stabilization of rPAPD5. The conditions noted are these: 10 μM test compound; shift vs DMSO control; read-out: ΔTm (Table 2, starred: the compound was tested at 10 μM). On the procedure: Binding and stabilization of rPAPD5 by test compounds was determined using differential scanning fluorimetry (DSF). DSF assays were performed to determine protein melting temperature using an indicator dye SYPRO orange (Thermo Fisher Scientific, S6651) diluted 1:5000 in […] of buffer containing […], […] (Jena Biosciences), 25 mM Tris-HCl, 5 mM MgCl2, 50 mM KCl. […] DMSO was used as a negative control. Each curve was an average of three measurements and Thermal Shift software (Thermo Fisher Scientific, 4466038) was used for analysis. […] The change in melting temperature (ΔTm) is in reference to the DMSO control. Referring to Table 2, “+” refers to ΔTm values below 1° C., “++” refers to ΔTm values from 1 to 5° C., and “+++” refers to ΔTm values above 5° C.
For orientation: Differential scanning fluorimetry follows unfolding on heating by fluorescence.
As for `O=C(O)c1ccccc1Nc1c(S(=O)(=O)N2CCN(C(=O)OCc3ccccc3)CC2)cnc2ccc(Cl)cc12` [Compound 123A-CBZ], the ΔTm at 10 µM is > 5 °C.

The same test, now with this note: 100 μM test compound; shift vs DMSO control; read-out: ΔTm at 100 μM.
`O=C(O)c1ccccc1Nc1c(NC2CCS(=O)(=O)CC2)cnc2ccc(Cl)cc12` [Compound 188A, 2-[[6-chloro-3-[(1,1-dioxothian-4-yl)amino]-4-quinolyl]amino]benzoic acid]: the ΔTm at 100 µM was > 5 °C.

For the molecule `O=C(O)c1ccccc1Nc1c(S(=O)(=O)N2CCOCC2)cnc2ccc(-c3ccc(N4CCOCC4)nc3)cc12` [Compound 163A, 2-[[6-(6-morpholino-3-pyridyl)-3-morpholinosulfonyl-4-quinolyl]amino]benzoic acid], the ΔTm at 100 µM lay in the range of 1 to 5 °C.

Turning to `O=C(O)c1cc(F)ccc1Nc1c(C2=CCOCC2)cnc2ccc(Cl)cc12` [Compound 304A, 2-[[6-chloro-3-(3,6-dihydro-2H-pyran-4-yl)-4-quinolyl]amino]-5-fluoro-benzoic acid], the ΔTm at 100 µM was > 5 °C.

For `O=C(O)c1ccccc1Nc1c(S(=O)(=O)N2CCOCC2)cnc2ccc(-c3ccnc4[nH]ccc34)cc12` [Compound 159A, 2-[[3-morpholinosulfonyl-6-(1H-pyrrolo[2,3-b]pyridin-4-yl)-4-quinolyl]amino]benzoic acid], the ΔTm at 100 µM was > 5 °C.

For `Cc1ccc(-c2ccc3ncc(S(=O)(=O)N4CCOCC4)c(Nc4ccccc4C(=O)O)c3c2)s1` [Compound 136A], the ΔTm at 100 µM lay in the range of 1 to 5 °C.

`O=C(O)c1cc(C(O)C(F)(F)F)ccc1Nc1c(S(=O)(=O)N2CCOCC2)cnc2ccc(Cl)cc12` (centres unmarked) [Compound 293A, 2-[(6-chloro-3-morpholinosulfonyl-4-quinolyl)amino]-5-(2,2,2-trifluoro-1-hydroxy-ethyl)benzoic acid]: the ΔTm at 100 µM is 1 to 5 °C.

As to `COc1ccc(Nc2c(-c3ncco3)cnc3ccc(Cl)cc23)c(C(=O)O)c1` [Compound 302A, 2-[(6-chloro-3-oxazol-2-yl-4-quinolyl)amino]-5-methoxy-benzoic acid], the ΔTm at 100 µM is > 5 °C.

As to `O=C(O)c1ccccc1Nc1c(S(=O)(=O)N2CCOCC2)cnc2ccc(-c3cnc4[nH]ncc4c3)cc12` [Compound 155A, 2-[[3-morpholinosulfonyl-6-(1H-pyrazolo[3,4-b]pyridin-5-yl)-4-quinolyl]amino]benzoic acid], the ΔTm at 100 µM lay within 1 to 5 °C.

For `CN1CC=C(c2cnc3ccc(Cl)cc3c2Nc2ccccc2C(=O)O)CC1` [Compound 207A-INT, 2-[[6-chloro-3-(1-methyl-3,6-dihydro-2H-pyridin-4-yl)-4-quinolyl]amino]benzoic acid], the ΔTm at 100 µM is > 5 °C.

As to `O=C(O)c1ccccc1Nc1c(S(=O)(=O)N2CCOCC2)cnc2ccc(-c3c[nH]c4ncc(C(F)(F)F)cc34)cc12` [Compound 147A], the ΔTm at 100 µM is > 5 °C.

Take `Cc1cc(OC(C)C)ncc1-c1ccc2ncc(S(=O)(=O)N3CCOCC3)c(Nc3ccccc3C(=O)O)c2c1` [Compound 161A, 2-[[6-(6-isopropoxy-4-methyl-3-pyridyl)-3-morpholinosulfonyl-4-quinolyl]amino] benzoic acid]: the ΔTm at 100 µM is < 1 °C.

For `N#Cc1ccc(-c2ccc3ncc(S(=O)(=O)N4CCOCC4)c(Nc4ccccc4C(=O)O)c3c2)cn1` [Compound 164A, 2-[[6-(6-cyano-3-pyridyl)-3-morpholinosulfonyl-4-quinolyl]amino]benzoic acid], the ΔTm at 100 µM lay in the range of 1 to 5 °C.

In the case of `O=C(O)c1c(Nc2c(S(=O)(=O)N3CCOCC3)cnc3ccc(Cl)cc23)cccc1N1CCC1` [Compound 87A-Cl], the ΔTm at 100 µM is 1 to 5 °C.

With `CN1CCN(c2ccc(-c3ccc4ncc(S(=O)(=O)N5CCOCC5)c(Nc5ccccc5C(=O)O)c4c3)cc2)CC1` [Compound 180A, 2-[[6-[4-(4-methylpiperazin-1-yl)phenyl]-3-morpholinosulfonyl-4-quinolyl]amino]benzoic acid], the ΔTm at 100 µM is < 1 °C.

Regarding `COCCn1cc(-c2ccc3ncc(S(=O)(=O)N4CCOCC4)c(Nc4ccccc4C(=O)O)c3c2)cn1` [Compound 145A], the ΔTm at 100 µM is > 5 °C.

Turning to `O=C(O)c1ccc(Nc2c(S(=O)(=O)N3CCOCC3)cnc3ccc(Cl)cc23)c(C(=O)O)c1` [Compound 398A, 4-[(6-chloro-3-morpholinosulfonyl-4-quinolyl)amino]benzene-1,3-dicarboxylic acid], the ΔTm at 100 µM was < 1 °C.

On to `O=C(O)c1ccccc1Nc1c(C2CCOCC2)cnc2c1CCCC2` [Compound 204A-BP, 2-[(3-tetrahydropyran-4-yl-5,6,7,8-tetrahydroquinolin-4-yl)amino]benzoic acid], for which the ΔTm at 100 µM is > 5 °C.

As to `CS(=O)(=O)Nc1ccc(-c2ccc3ncc(S(=O)(=O)N4CCOCC4)c(Nc4ccccc4C(=O)O)c3c2)cc1` [Compound 179A, 2-[[6-[4-(methanesulfonamido)phenyl]-3-morpholinosulfonyl-4-quinolyl]amino]benzoic acid], the ΔTm at 100 µM lay in the range of 1 to 5 °C.

Consider `C/N=c1/ccc(-c2ccc3ncc(S(=O)(=O)N4CCOCC4)c(Nc4ccccc4C(=O)O)c3c2)c[nH]1` [Compound 151A], for which the thermal shift (ΔTm) at 100 µM was in the range of 1 to 5 °C.

For `O=C1Cc2ccc(-c3ccc4ncc(S(=O)(=O)N5CCOCC5)c(Nc5ccccc5C(=O)O)c4c3)cc2N1` [Compound 170A, 2-[[3-morpholinosulfonyl-6-(2-oxoindolin-6-yl)-4-quinolyl]amino]benzoic acid], the ΔTm at 100 µM was in the range of 1 to 5 °C.

Consider `CNc1ncc2cc(-c3ccc4ncc(S(=O)(=O)N5CCOCC5)c(Nc5ccccc5C(=O)O)c4c3)ccc2n1` [Compound 171A, 2-[[6-[2-(methylamino)quinazolin-6-yl]-3-morpholinosulfonyl-4-quinolyl]amino]benzoic acid], for which the ΔTm at 100 µM is 1 to 5 °C.

Regarding `COc1cccc(C(=O)O)c1Nc1c(S(=O)(=O)N2CCOCC2)cnc2ccc(Cl)cc12` [Compound 284A, 2-[(6-chloro-3-morpholinosulfonyl-4-quinolyl)amino]-3-methoxy-benzoic acid], the ΔTm at 100 µM is 1 to 5 °C.

Consider `COc1ncc(-c2ccc3ncc(S(=O)(=O)N4CCOCC4)c(Nc4ccccc4C(=O)O)c3c2)cc1N` [Compound 166A, 2-[[6-(5-amino-6-methoxy-3-pyridyl)-3-morpholinosulfonyl-4-quinolyl]amino]benzoic acid], for which the ΔTm at 100 µM was 1 to 5 °C.

As to `O=C(O)c1c(Br)cccc1Nc1c(S(=O)(=O)N2CCOCC2)cnc2ccc(Cl)cc12` [Compound 128A-BR], the ΔTm at 100 µM is < 1 °C.

For `O=C(O)c1ccccc1Nc1c(S(=O)(=O)N2CCOCC2)cnc2ccc(-c3sccc3Cl)cc12` [Compound 140A], the shift in melting temperature (ΔTm) at 100 µM fell in the range of 1 to 5 °C.

On to `N=c1cc(C(F)(F)F)c(-c2ccc3ncc(S(=O)(=O)N4CCOCC4)c(Nc4ccccc4C(=O)O)c3c2)c[nH]1` [Compound 143A], for which the ΔTm at 100 µM lay within 1 to 5 °C.

Turning to `O=C(O)c1ccccc1Nc1c(S(=O)(=O)N2CCOCC2)cnc2ccc(-c3cc[nH]n3)cc12` [Compound 137A], the ΔTm at 100 µM lay in the range of 1 to 5 °C.

For `CCN(CC)C(=O)c1ccc(-c2ccc3ncc(S(=O)(=O)N4CCOCC4)c(Nc4ccccc4C(=O)O)c3c2)cc1` [Compound 174A, 2-[[6-[4-(diethylcarbamoyl)phenyl]-3-morpholinosulfonyl-4-quinolyl]amino]benzoic acid], the ΔTm at 100 µM is < 1 °C.

For the molecule `N#Cc1ccc(Nc2c(S(=O)(=O)N3CCOCC3)cnc3ccc(Cl)cc23)c(C(=O)O)c1` [Compound 338A, 2-[(6-chloro-3-morpholinosulfonyl-4-quinolyl)amino]-5-cyano-benzoic acid], the ΔTm at 100 µM is > 5 °C.

As to `O=C(O)c1cccc(Cl)c1Nc1c(S(=O)(=O)N2CCOCC2)cnc2ccc(Cl)cc12` [Compound 280A, 3-chloro-2-[(6-chloro-3-morpholinosulfonyl-4-quinolyl)amino]benzoic acid], the ΔTm at 100 µM was > 5 °C.

As for `CC(C)n1nc(C(F)(F)F)cc1-c1ccc2ncc(S(=O)(=O)N3CCOCC3)c(Nc3ccccc3C(=O)O)c2c1` [Compound 141A], the ΔTm at 100 µM is < 1 °C.

In the case of `O=C(O)c1ccccc1Nc1c(C2=CCNCC2)cnc2ccc(Cl)cc12` [Compound 206A-INT, 2-[[6-chloro-3-(1,2,3,6-tetrahydropyridin-4-yl)-4-quinolyl]amino]benzoic acid], the ΔTm at 100 µM is > 5 °C.

Consider `O=C(O)c1cc(B(O)O)ccc1Nc1c(S(=O)(=O)N2CCOCC2)cnc2ccc(Cl)cc12` [Compound 263A, 5-borono-2-[(6-chloro-3-morpholinosulfonyl-4-quinolyl)amino]benzoic acid], for which the ΔTm at 100 µM was > 5 °C.

Turning to `O=C(O)c1ccccc1Nc1c(Nc2cncnc2)cnc2ccc(Cl)cc12` [Compound 191A, 2-[[6-chloro-3-(pyrimidin-5-ylamino)-4-quinolyl]amino]benzoic acid], the ΔTm at 100 µM was > 5 °C.

As for `O=C(O)c1ccccc1Nc1c(S(=O)(=O)N2CCOCC2)cnc2ccc(N3CCOCC3)cc12` [Compound 248A, 2-[(6-morpholino-3-morpholinosulfonyl-4-quinolyl)amino]benzoic acid], the ΔTm at 100 µM lay within 1 to 5 °C.

For the molecule `O=C(O)c1cc(C(F)(F)F)ccc1Nc1c(S(=O)(=O)N2CCOCC2)cnc2ccc(Cl)cc12` [Compound 271A, 2-[(6-chloro-3-morpholinosulfonyl-4-quinolyl)amino]-5-(trifluoromethyl)benzoic acid], the ΔTm at 100 µM is 1 to 5 °C.

Consider `O=C(O)c1c(O)cccc1Nc1c(S(=O)(=O)N2CCC(F)(F)CC2)cnc2ccc(OC(F)(F)F)cc12` [Compound 133A], for which the ΔTm at 100 µM is > 5 °C.

For orientation: ΔTm means the shift of the melting midpoint relative to a reference.
